The source of these data is patent US8394797B2, “Substituted pyrazole sigma receptor antagonists” (Laboratorios Del Dr. Esteve, S.A., priority 2004, dated 2013).

For one data set, the target named is T1, σ2-receptor (Mus musculus, UniProt Q8VD00).
T1 construct: brains from sigma receptor type I (sigma-1) knockout mice were homogenized; from tissue; host or cells: brain membranes of sigma-1 knockout mice
T1 sequence (Q8VD00 1-176): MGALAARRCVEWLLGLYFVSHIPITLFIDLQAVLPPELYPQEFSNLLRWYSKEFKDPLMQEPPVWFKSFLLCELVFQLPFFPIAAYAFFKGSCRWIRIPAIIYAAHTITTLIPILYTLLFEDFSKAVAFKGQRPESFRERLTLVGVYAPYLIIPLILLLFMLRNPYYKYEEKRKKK
As to the kind of experiment: Sigma-2 receptor binding, [3H]-DTG, brains from sigma-1 knockout mice. The note with it: for inhibition at 1 µM: 2 h, tested compound at 10^-6 M, [3H]-DTG 3 nM, read-out: binding sigma-2 (*) % of radioactively labeled compound replaced by the tested compound; for Ki: [3H]-DTG, sigma-1 knockout mouse brain. Here is the method:
In brief, brains from sigma receptor type I (sigma-1) knockout mice were homogenized in a volume of 10 mL/g tissue net weight of ice-cold 10 mM Tris-HCl, pH 7.4, containing 320 mM sucrose (Tris-sucrose buffer) with a Potter-Elvehjem homogenizer (10 strokes at 500 r.p.m.) The homogenates were then centrifuged at 1000 g for 10 min at 4° C., and the supernatants were saved. The pellets were resuspended by vortexing in 2 mL/g ice-cold Tris-sucrose buffer and centrifuged again at 1000 g for 10 min. The combined 1000 g supernatants were centrifuged at 31000 g for 15 min at 4° C. The pellets were resuspended by vortexing in 3 mL/g 10 mM Tris-HCl, pH 7.4, and the suspension was kept at 25° C. for 15 min.
The assay tubes contained 10 μL of [^3H]-DTG (final concentration of 3 nM), 400 μL of the tissue suspension (5.3 mL/g in 50 mM Tris-HCl, pH 8.0) to a final assay volume of 0.5 mL. Non-specific binding was defined by addition of a final concentration of 1 μM haloperidol. […] Filters were washed with three times with 5 mL volumes of cold Tris-HCl buffer (10 mM, pH 8.0). Following addition of scintillation cocktail samples were allowed to equilibrate overnight.

Another data set addresses T2, σ1-receptor (Cavia porcellus, UniProt Q60492).
T2 construct: guinea pig brains were homogenized; from tissue; host or cells: guinea pig brain membranes
The data set is described as follows: Sigma-1 receptor binding, [3H](+)-pentazocine, brain membranes. More on the design: species or system guinea pig. The following applies: for inhibition at 1 µM: 2.5 h, tested compound at 10^-6 M, [3H](+)-pentazocine 0.5 nM, read-out: binding sigma-1 (*) % of radioactively labeled compound replaced by the tested compound; for Ki: [3H](+)-pentazocine, guinea pig brain membranes, read-out: binding sigma-1 Ki.

Data set [1] relates to capsaicin-induced mechanical allodynia in mice. The data set is described as follows: Effect on capsaicin in development of mechanical allodynia (von Frey filaments). It counts as in vivo. The note with it: for antiallodynic effect: mice, capsaicin, von Frey filaments. On the procedure:
Effect on Capsaicin in Development of Mechanical Allodynia This model uses the von-Frey Filaments and is a model to test the effects or symptoms of neuropathic pain, allodynia etc. […]. After habituation mice were according to FIG. 1 first treated with the test-compound (or solvent in controls). Then […] (1% DMSO) is injected into their paw resulting in developing pain in the effected paw. The effected paw is then treated with a mechanical stimulus and the latency time before the paw is withdrawn is measured.

Data set [2] deals with carrageenan-induced thermal hyperalgesia in mice. As to the kind of experiment: Carrageenan-induced thermal hyperalgesia model (plantar test, Hargreaves). The note with it: for activity in the carrageenan thermal hyperalgesia model: mice, two hours after carrageenan. Type of data set: in vivo. Here is the method: Some compounds were also evaluated for antinociceptive activity in the carrageenan-induced thermal hyperalgesia model in mice. In this model, two hours after carrageenan injection into the paw, the plantar test was used to assess thermal hyperalgesia according to the method described by Hargreaves et al. (1988). The compounds of Examples 58 and 62.

The next data set deals with sigma-2 site (Homo sapiens, UniProt Q5BJF2). The note with it: cited from earlier work.
In the next data set the target is sigma-1 site (Homo sapiens, UniProt Q99720). The note with it: cited from earlier work.
The subject of data set [3] is mechanical allodynia after partial sciatic nerve ligation in mice. The data set is described as follows: Partial sciatic nerve ligation model of neuropathic pain (von Frey test). The note with it: 30 mg/kg s.c.; 11-13 days after surgery. Type of data set: in vivo. From the text:
The von Frey test was used to assess mechanical allodynia 11-13 days after surgery.

T2 sequence (Q60492 whole entry): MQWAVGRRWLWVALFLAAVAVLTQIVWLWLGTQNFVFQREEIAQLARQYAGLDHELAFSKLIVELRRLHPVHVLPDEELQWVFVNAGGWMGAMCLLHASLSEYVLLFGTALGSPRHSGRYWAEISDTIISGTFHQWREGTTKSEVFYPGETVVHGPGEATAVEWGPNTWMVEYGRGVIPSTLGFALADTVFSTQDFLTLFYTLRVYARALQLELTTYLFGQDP
sigma-2 site, sequence (Q5BJF2 whole entry): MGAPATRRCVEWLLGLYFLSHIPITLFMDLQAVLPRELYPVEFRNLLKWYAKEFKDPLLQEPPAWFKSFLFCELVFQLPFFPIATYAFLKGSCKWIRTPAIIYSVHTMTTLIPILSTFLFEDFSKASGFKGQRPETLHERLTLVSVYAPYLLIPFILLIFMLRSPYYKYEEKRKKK
sigma-1 site, sequence (Q99720 whole entry): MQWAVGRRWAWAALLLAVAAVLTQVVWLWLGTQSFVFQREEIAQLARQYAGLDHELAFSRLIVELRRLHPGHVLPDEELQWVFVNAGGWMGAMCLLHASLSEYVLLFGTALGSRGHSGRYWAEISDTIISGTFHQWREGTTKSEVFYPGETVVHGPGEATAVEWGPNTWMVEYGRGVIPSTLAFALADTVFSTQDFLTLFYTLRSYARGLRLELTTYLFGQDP

As to `Cn1ncc2c1CCCC2CCN1CCC(c2ccccc2)CC1.O=C(O)C(=O)O` (stereo not shown) [Example 58, 4,5,6,7-tetrahydro-1-methyl-4-(2-(4-phenylpiperidin-1-yl)ethyl)-1H-indazole oxalate], the inhibition at 1 µM is 100% at σ2-receptor and 106% at σ1-receptor. The figures for the Ki at σ2-receptor and on σ1-receptor were 6.3 nM and 1.1 nM, respectively. Moreover, the analgesia in data set [1] (2 mg/kg) is 100%; in data set [2] (2.5 mg/kg), 60%; in data set [2] (10 mg/kg) it was roughly 90%. The antiallodynic effect result in data set [1] is on record as “clear antiallodynic effect”. Moreover, in data set [2], the “activity in the carrageenan thermal hyperalgesia model” value is listed as “highly active”.

Regarding SKF 10047, the “affinity for the sigma-2 site” value at sigma-2 site was “micromolar affinity”. Further, the “affinity for the sigma-1 site” value on sigma-1 site is “nanomolar affinity”.

The molecule `CN(CCC1CCCc2c1cnn2C)Cc1ccccc1.O=C(O)C(=O)O` (stereo not shown) [Example 62, N-benzyl-2-(4,5,6,7-tetrahydro-1-methyl-1H-indazol-4-yl)-N-methylethanamine oxalate] yielded a melting point of 140.2 to 141.7 °C. For the same molecule, the “inhibition of mechanical allodynia” value in data set [3] is “significant inhibition of mechanical allodynia”. For the same molecule, at σ2-receptor, the inhibition at 1 µM was determined as 93.5% and the affinity, expressed as Ki, was 11.9 nM. On σ1-receptor, the inhibition at 1 µM amounted to 104% and the Ki is 11.1 nM. In addition, in data set [1], the antiallodynic effect result was “clear antiallodynic effect”. In data set [2] (2.5 mg/kg), this molecule yielded an analgesia of 40%. The same molecule returned an analgesia in data set [2] (10 mg/kg) of 75%. This molecule also registered an analgesia in data set [2] (40 mg/kg) of 90%. Moreover, the “activity in the carrageenan thermal hyperalgesia model” value in data set [2] is “highly active”.
